Measurements from BigSolDB 2.1.

Nc1cccc2c1CN(C1CCC(=O)NC1=O)C2=O (stereo not given)
solubility (mole fraction)
Settings	273.15 K	278.15 K	283.15 K	288.15 K	293.15 K	298.15 K	303.15 K	308.15 K	313.15 K	318.15 K
in acetonitrile	0.000444	0.000458	0.000476	0.000496	0.000516	0.000536	0.000558	0.000579	0.000601	0.000623
in ethyl acetate	8e-05	9.2e-05	0.000105	0.00012	0.000136	0.000152	0.000168	0.000186	0.000206	0.000226
in isopropanol	2.5e-05	3.2e-05	4.1e-05	5.2e-05	6.6e-05	8e-05	9.5e-05	0.000114	0.000136	0.00016
in methanol	0.00019	0.000204	0.00022	0.000237	0.000256	0.000276	0.000301	0.000326	0.000351	0.000383
